Assay results published in patent US8859558B2, “Pyrazinyl carboxamides as fungicides” (Dow AgroSciences, LLC., priority 2010, dated 2014).

Key:
[1] = test system: Puccinia recondita f. sp. tritici (PUCCRT); assay: Fungicidal activity, wheat leaf rust (PUCCRT), greenhouse wheat plants; type: in vivo; conditions: One-Day Protectant, wheat (variety Yuma)
[2] = test system: Mycosphaerella graminicola; anamorph: Septoria tritici (SEPTTR); assay: Fungicidal activity, leaf blotch of wheat (SEPTTR), greenhouse wheat plants; type: in vivo; conditions: wheat (variety Yuma)
Method: Leaf Blotch of Wheat (Mycosphaerella graminicola; anamorph: Septoria tritici; Bayer code […]): Wheat plants (variety Yuma) were grown from seed in a greenhouse in 50% mineral soil/50% soil-less Metro mix until the first leaf was fully emerged, with 7-10 seedlings per pot. These plants were inoculated with an aqueous spore suspension of […] either prior to or after fungicide treatments. After inoculation the plants were kept in 100% relative humidity (one day in a dark dew chamber followed by two to three days in a lighted dew chamber) to permit spores to germinate and infect the leaf. The plants were then transferred to a greenhouse for disease to develop. The following table presents the activity of typical compounds of the present disclosure when evaluated in these experiments. The effectiveness of the test compounds in controlling disease was determined by assessing the severity of disease on treated plants, then converting the severity to percent control based on the level of disease on untreated, inoculated plants. • In each case of Table II the rating scale is as follows: […]

[3] = test system: Cochliobolus sativus (COCHSA); assay: Fungicidal activity, spot blotch of barley (COCHSA), greenhouse barley plants; type: in vivo; conditions: One-Day Protectant, barley (variety Harrington)
Method: Spot Blotch of Barley (Cochliobolus sativus: anamorph Helmithosporium sativum; Bayer code COCHSA): Barley plants (variety Harrington) were grown from seed in a greenhouse in soil-less Metro mix until the first leaf was fully emerged, with 7-10 seedlings per pot. These plants were inoculated with an aqueous spore suspension of COCHSA prior to fungicide treatments. After inoculation the plants were kept in 100% relative humidity one day to permit spores to germinate and infect the leaf. The plants were then transferred to a greenhouse for disease to develop. The following table presents the activity of typical compounds of the present disclosure when evaluated in these experiments. The effectiveness of the test compounds in controlling disease was determined by assessing the severity of disease on treated plants, then converting the severity to percent control based on the level of disease on untreated, inoculated plants. • In each case of Table II the rating scale is as follows: […]

## CC(C)C1C2CCC1c1c(NC(=O)c3nccnc3C(F)(F)F)cccc12 (centres unmarked) [Compound 9, 3-Trifluoromethyl-pyrazine-2-carboxylic acid (9-isopropyl-1,2,3,4-tetrahydro-1,4-methano-naphthalen-5-yl)-amide]
[1]
  PUCCRT 200 PPM 1DP (disease control rating): A (76-100)
[2]; One-Day Protectant
  SEPTTR 200 PPM 1DP (disease control rating): A (76-100)
[2]; Three-Day Curative
  SEPTTR 200 PPM 3DC (disease control rating): B (51-75)
[3]
  COCHSA 200 PPM 1DP (disease control rating): A (76-100)
other
  melting point: 173 to 177 °C
